Patent US4783480A, “6-keto-prostaglandin E1 derivatives” (Ono Pharmaceutical Co., Ltd., priority 1986, dated 1988)

Tests used:
[1] = test system: carbon tetrachloride-induced acute liver damage (plasma GOT and GPT); test: cytoprotective activity in carbon tetrachloride-induced acute liver damage in rats; assay type: in vivo, rat; details: for minimal effective dose: Rattus norvegicus, sc, rats, dosed three times (0, 6, 12 hrs), read-out: Inhibiting activity of CCl4 induced liver damage, minimum effective dose; for activity in the inhibition of liver damage induced by carbon tetrachloride compared with compounds (d) and (e): words
Method: (i) cytoprotective activity in carbon tetrachloride-induced acute liver damage in rats.
(i) Inhibitory activity on liver damage induced by carbon tetrachloride.
A solution of carbon tetrachloride (2000 μl) dissolved in olive oil (10 ml) was administered to Wistar male rates (body weight 190-220 g) at a rate of 2000 μl/kg animal body weight by intraperitoneal injection.
A solution of a compound of the present invention or of one of the comparison compounds in olive oil (2 ml/kg animal body weight) was administered three times, at the same time as, and then 6 hrs and 12 hrs after, the dosage of carbon tetrachloride, and blood was collected twice after 24 hrs and 48 hrs after the first dosage. The blood was centrifuged and plasma GOT (glutamic oxalacetic transaminase) activity and plasma GPT (glutamic pyruvic transaminase) activity were measured.

[2] = test system: blood pressure; test: hypotensive activity in the anesthetized dog, intravenous administration; assay type: in vivo; details: relative to PGE1 = 1
Method: (ii) hypotensive activity in dogs and
(ii) Hypotensive activity was measured in the anesthetized dog by intravenous administration, and as active control, PGE1 was used.

[3] = test system: blood platelet aggregation induced by ADP; test: inhibitory activity of blood platelet aggregation induced by ADP in rats; assay type: cell-based, rat; details: relative to PGE1 = 1
Description: (iii) inhibitory activity of blood platelet aggregation induced by ADP in rats. The experimental methods are described hereinafter.
(iii) The concentrations required to inhibit blood platelet aggregation induced in rats by ADP (adenosine diphosphate) are shown relative to PGE1.

[4] = toxicity (LD50) by intravenous administration in mice; details: mouse, in vivo

Row | Compound | minimal effective dose [1] [mg/kg] | activity in the inhibition of liver damage induced by carbon tetrachloride compared with compounds (d) and (e) [1] | Hypotensive activity (PGE1 = 1) [2] | Inhibiting activity of blood platelet aggregation (PGE1 = 1) [3] | LD50 [4] [mg/kg]
1 | CCCC[C@H]1CC[C@H]([C@H](O)/C=C/[C@H]2[C@H](O)CC(=O)[C@@H]2CC(=O)CCCCC(=O)N[C@@H](CC(C)C)C(=O)O)C1 [1(b), N-[(13E)-(11α,15α,16S,18S)-6,9-dioxo-11,15-dihydroxy-16,18-ethano-20-ethylprost-13-en-1-oyl]-L-leucine] | < 0.01 | almost the same activity | 0.01 | 0.01 | 30
2 | CCCCC(C)C[C@H](O)/C=C/[C@H]1[C@H](O)CC(=O)[C@@H]1CC(=O)CCCCC(=O)O (some centres unmarked) [(d), reference compound] | 0.03 | – | 21 | 68 | –
3 | CCCC[C@H]1CC[C@H]([C@H](O)/C=C/[C@H]2[C@H](O)CC(=O)[C@@H]2CC(=O)CCCCC(=O)N[C@@H](Cc2ccccc2)C(=O)O)C1 [Example 1, N-[(13E)-(11α,15α,16S,18S)-6,9-dioxo-11,15-dihydroxy-16,18-ethano-20-ethylprost-13-en-1-oyl]-L-phenylalanine] | < 0.01 | almost the same activity | 0.03 | 0.01 | 22
4 | CCCC[C@H](C)C[C@H](O)/C=C/[C@H]1[C@H](O)CC(=O)[C@@H]1CC(=O)CCCCC(=O)N[C@@H](Cc1ccccc1)C(=O)OC [Example 2(a), N[(13E)-(11α,15α,17S)6,9-dioxo-11,15-dihydroxy-17,20-dimethylprost-13-en-1-oyl]-L-phenylalanine methyl ester] | 0.03 | almost the same activity | 0.014 | 0.0053 | –
5 | CCCC[C@H]1CC[C@H]([C@H](O)/C=C/[C@H]2[C@H](O)CC(=O)[C@@H]2CC(=O)CCCCC(=O)O)C1 [(e), reference compound] | 0.005 | – | 24.5 | 506 | –
